Measurements published in US6887878B2, “KMST isoeugenol derivatives and pharmaceutical activity” (Ing-Jun Chen, priority 2003, dated 2005).
“And” between values parts separate entries of the source, which are not always exact repeats. Identical values can stand only once.

Key:
α2-adrenergic receptor = test: clonidine-induced contraction in isolated rat thoracic aorta (pA2); parameters: species or system Wistar rat; conditions: Schild plot, mean ± SEM of eight, listed as KMST
Procedure: Clonidine, noradrenaline and serotonin (10^−8˜10^−4 M) were added to the bath to induce contractions after pretreatment with KMST for 15 min.

β1-adrenoceptor = target: T1, β1-adrenoceptor (Rattus norvegicus, UniProt P18090); test: isoprenaline-induced positive inotropic effects in electrically stimulated rat left atria (pA2); parameters: species or system Wistar rat; conditions: Schild plot, mean ± SEM of eight, listed as KMST
T1 construct: Left atria were dissected from the hearts and mounted in a 10 ml organ bath; from tissue; host or cells: rat left atria, electrically driven
Procedure: Rats of either sex weighing 350-500 g were sacrificed after mild anesthesia with ether, and their hearts were quickly excised. Left atria were dissected from the hearts and mounted in a 10 ml organ bath with one end fixed and the other end connected to a force displacement transducer (Grass, Model FT03). […] Atria were pre-stretched to a baseline tension of 0.5 g and equilibrated for 60 min in an aerated Krebs solution before starting experimental protocols. Atria were driven at 2-s intervals via two platinum electrodes on each side. An incubation time of 30 min was allowed for the test compound.

β2 receptors = target: T2, β2 receptors (Rattus norvegicus, UniProt P10608); test: [3H]CGP-12177 receptor binding in rat lung; parameters: species or system Wistar rat; conditions: [3H]CGP-12177, rat lung
T2 construct: from tissue; host or cells: Wistar rat lung membranes
Procedure: (§1) The homogenate was pressure filtered through muslin. Filtrate was centrifuged at 1000 g for 10 min. […] Protein content was determined by Bradford's method.

5-HT re-uptake = target: T3, 5-HT re-uptake (Rattus norvegicus, UniProt P31652); test: 5-HT re-uptake in cerebral cortex synaptosomes; type: biochemical, Wistar rat; conditions: read-out: IC50 of 5-HT uptake inhibition
T3 construct: the cerebral cortex or striatum was dissected and crude synaptosomes were prepared; from tissue; host or cells: crude synaptosomes of Wistar rat cerebral cortex
Procedure: Wistar rats weighting 150-200 g were decapitated, the cerebral cortex or striatum was dissected and crude synaptosomes were prepared. […] Uptake was initiated by the addition of 50 μl of [^3H] […] Saline was added to the incubation mixture, which was then filtered through a Whatman GF/B glass filter under reduced pressure. To determine nonspecific uptake, incubation was performed at 0° C.

[1] = test system: lipid peroxidation in rat brain homogenate; test: lipid peroxidation initiated by Fe2+-ascorbic acid in rat brain homogenates (TBARS); type: biochemical
Procedure: Rat brain homogenate was made in 0.9% saline containing 10 mg tissue/ml. The rates of membrane lipid peroxidation were measured by the formation of thiobarbituric acid (TBA)-reactive substance (TBARS). Rat brain homogenates (1 ml) were incubated at 37° C. for 5 min with 10 μl of test compound or vehicle. […] After 30 min of incubation, the reaction was stopped by adding 0.1 ml of 0.2% BHT. TBA reagent was then added and the mixture was heated for 30 min in a boiling water bath. […] The amount of TBARS was quantified using the linear regression obtained from malondialdehyde (MDA) standards.

[2] = test system: epinephrine-induced human platelet aggregation; test: epinephrine-induced human platelet aggregation; type: cell-based; conditions: epinephrine 5 μM, PRP
Procedure: Venous blood from human volunteer donors was collected in 10 ml Monovette containing 1 ml citrate solution (0.106M trisodium citrate; Sarstedt, Nümbrecht, Germany) and centrifuged (400 g, 10 min, 20° C.). […] After centrifugation (10 min, 2000 g, 20° C.), the platelet pellet was resuspended in wishing buffer (113 mM NaCl, 4 mM Na2HPO4, 24 mM NaH2PO4, 4 mM KCl, 0.2 mM EGTA(Ethylene glycol-bis-(2-aminoethyl ether) N,N,N′-tetraacetic acid), 0.1% (wt/vol) glucose, pH 6.0) and recentrifuged (10 min, 2000 g, 20° C.). The washed platelets were resuspended in incubation buffer (134 mM NaCl, 12 mM NaHCO3, 2.9 mM KCl, 0.34 mM NaH2PO4, 5 mM HEPES (N-(2-hydroxyethyl) piperazine-N′-(2-ethanesulfonic acid)), 5 mM glucose, pH7.4), cells were counted in a Sysmex hematology analyzer (Sysmex, CDA-500, Japan) and adjusted to a final concentration of 2×10^8 platelets/ml.
The aggregation of the platelets in platelet-rich plasma (PRP) was measured as a change in light absorbance by a Payton dual-channel aggregometer (NBS, Hema tracer, Japan). PRP (240 μL) was stirred (700 rpm) at 37° C. for 1 min, and 5 μL epinephrine (final concentration 5 μM), serotonin (final concentration 5 μM) was added. After which the rate of primary aggregation (1/min) and maximum aggregation (%) at 5 min were recorded. To study the effects of compounds on epinephrine or serotonin-induced aggregation, PRP was incubated with 5 μL of compounds at various concentrations for 1 min before epinephrine or serotonin was added. IC50 values given were calculated from the secondary aggregation data.

anesthetized rats = test: intra-cisternal injection and NTS microinjection, BP and HR; type: in vivo, rat
Procedure: Intra-cisternal injections of KMST (0.3, 0.03 μmol), yohimbine [0.03 μmol), and clonidine (38 pmol), were performed in rats as described by Duan et al (1987). Briefly, rats weighing 250-300 g were anaesthetized with pentobarbital sodium (50 mg kg^−1, i.p.) and mounted in a David-Kopf stereotaxic instrument (Yeh J L. et al., Brain. Res. Bull., 30:641-648, 1993). The calvarium was exposed and a 1 mm diameter trephine hole was drilled 1.8 mm lateral to the coronary and 1.5 mm posterior to the sagittal sutures. A cannula (0.7 mm O.D.) connected to a Hamilton syringe (RN-705, 5051) by PE-50 was advanced 4.7 mm into the brain using the electrode carrier.
Rats were anesthetized and placed in a David-Kopf stereotaxic instrument. The cerebellum was exposed after removing the skin and occipital bone. The NTS coordinates were (reference to lambda) P 5-6 mm, L/R 0.5-1 mm, depth 6-7.5 mm (Wu et al., 1994). NTS injection sites were confirmed by decreasing BP and HR following micro-injection of 1% L-glutamate. […] Pre-treatment with clonidine was performed 15 min before administration of test agents. At the end of experiments, the animals were sacrificed. The brain was removed and sectioned for histological confirmation of the drug application site.

5-HT2A receptor = 5-HT2A receptor (Rattus norvegicus, UniProt P14842); test: [3H]ketanserin receptor binding in rat cortex; parameters: from tissue; host or cells: Wistar rat cortex membranes; species or system Wistar rat
Procedure: as §1

T1 sequence (P18090 whole entry): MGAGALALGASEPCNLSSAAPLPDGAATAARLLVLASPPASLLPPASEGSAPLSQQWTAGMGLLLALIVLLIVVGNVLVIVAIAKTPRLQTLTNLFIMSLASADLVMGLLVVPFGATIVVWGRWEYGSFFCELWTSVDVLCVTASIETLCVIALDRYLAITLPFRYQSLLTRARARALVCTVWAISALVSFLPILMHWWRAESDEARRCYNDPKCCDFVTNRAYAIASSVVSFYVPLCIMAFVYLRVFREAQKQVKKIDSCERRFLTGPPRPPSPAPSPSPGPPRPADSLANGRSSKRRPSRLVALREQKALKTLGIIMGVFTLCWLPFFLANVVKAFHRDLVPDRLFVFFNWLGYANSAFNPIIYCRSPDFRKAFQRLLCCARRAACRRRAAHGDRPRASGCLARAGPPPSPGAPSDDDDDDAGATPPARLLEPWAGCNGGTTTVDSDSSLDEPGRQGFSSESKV
T2 sequence (P10608 whole entry): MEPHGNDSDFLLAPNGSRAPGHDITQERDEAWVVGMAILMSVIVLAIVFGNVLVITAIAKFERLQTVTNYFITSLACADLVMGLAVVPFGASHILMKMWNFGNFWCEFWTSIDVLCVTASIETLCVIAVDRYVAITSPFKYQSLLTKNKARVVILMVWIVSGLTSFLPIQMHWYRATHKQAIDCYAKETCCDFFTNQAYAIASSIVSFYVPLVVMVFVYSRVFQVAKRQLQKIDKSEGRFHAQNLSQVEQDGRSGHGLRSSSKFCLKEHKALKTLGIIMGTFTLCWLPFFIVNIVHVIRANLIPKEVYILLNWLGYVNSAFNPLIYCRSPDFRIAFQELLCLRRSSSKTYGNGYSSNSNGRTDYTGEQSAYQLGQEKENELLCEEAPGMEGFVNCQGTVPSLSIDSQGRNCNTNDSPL
T3 sequence (P31652 whole entry): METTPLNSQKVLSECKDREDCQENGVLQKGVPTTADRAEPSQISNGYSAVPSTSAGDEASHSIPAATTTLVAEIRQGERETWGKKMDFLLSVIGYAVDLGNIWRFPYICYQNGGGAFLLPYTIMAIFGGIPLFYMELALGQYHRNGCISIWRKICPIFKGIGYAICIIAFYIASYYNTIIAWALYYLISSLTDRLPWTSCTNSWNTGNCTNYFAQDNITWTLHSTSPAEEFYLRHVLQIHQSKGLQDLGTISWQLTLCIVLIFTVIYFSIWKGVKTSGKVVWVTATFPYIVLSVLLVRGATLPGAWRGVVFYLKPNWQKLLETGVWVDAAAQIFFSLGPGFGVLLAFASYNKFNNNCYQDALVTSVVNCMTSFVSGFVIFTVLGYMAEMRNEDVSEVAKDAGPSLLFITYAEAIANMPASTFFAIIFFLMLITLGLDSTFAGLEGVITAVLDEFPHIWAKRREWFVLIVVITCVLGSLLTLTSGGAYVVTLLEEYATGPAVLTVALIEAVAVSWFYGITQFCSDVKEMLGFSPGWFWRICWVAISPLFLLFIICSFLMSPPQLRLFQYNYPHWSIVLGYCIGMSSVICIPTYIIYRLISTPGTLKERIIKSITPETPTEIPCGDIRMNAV
Chain of 5-HT2A receptor (P14842 whole entry): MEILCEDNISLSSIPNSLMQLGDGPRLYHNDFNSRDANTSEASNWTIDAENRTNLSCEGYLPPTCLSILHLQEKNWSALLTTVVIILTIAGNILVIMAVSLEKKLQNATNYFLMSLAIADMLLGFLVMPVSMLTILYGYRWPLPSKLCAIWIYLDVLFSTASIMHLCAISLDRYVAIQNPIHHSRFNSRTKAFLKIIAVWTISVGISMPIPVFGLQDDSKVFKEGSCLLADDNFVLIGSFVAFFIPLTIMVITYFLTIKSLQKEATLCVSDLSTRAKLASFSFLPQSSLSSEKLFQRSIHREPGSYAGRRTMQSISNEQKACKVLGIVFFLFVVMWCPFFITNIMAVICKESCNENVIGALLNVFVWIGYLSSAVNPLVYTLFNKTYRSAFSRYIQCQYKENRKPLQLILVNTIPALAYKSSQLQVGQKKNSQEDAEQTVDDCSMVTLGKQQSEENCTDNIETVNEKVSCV

CC=Cc1ccc(OCC(O)CN2CCN(c3cccc(Cl)c3)CC2)c(OC)c1 (centres unmarked) [Compound 1]
α2 pA2 value (α2-adrenergic receptor): 7.40±0.38
β1 pA2 value (β1-adrenoceptor): 6.66±0.17 and 6.66
Ki (β2 receptors): > 10000 nM
IC50 (5-HT re-uptake): 34300 nM
potency of KMST relative to ascorbic acid, lipid peroxidation ([1]; rat brain homogenate): ~3 times
potency of KMST relative to trazodone, lipid peroxidation ([1]; rat brain homogenate): ~30 times
potency of KMST relative to yohimbine, lipid peroxidation ([1]; rat brain homogenate): approximately 5 times
IC50 ([1]; rat brain homogenates, listed as KMST, read-out: IC50 inhibiting lipid peroxidation initiated by Fe2+-ascorbic acid): 2680 nM
IC50 [2]: 2780 nM
BP and HR after intra-cisternal injection and NTS microinjection (anesthetized rats; central administration): increased BP and HR
clonidine-induced hypotension and bradycardia (anesthetized rats; high dose (0.3 μmol)): reduced both
clonidine-induced bradycardia (anesthetized rats; low dose (0.03 μmol)): did not inhibit
clonidine-induced hypotension (anesthetized rats; low dose (0.03 μmol)): reduced
Ki (5-HT2A receptor): 33.3 nM
